In one test the target is T1, GPIIb-IIIa on platelets (Homo sapiens, UniProt P05106+P08514).
T1 construct: endogenous in cells; host or cells: platelets
Description: 125I-anti-LIBS1 binding to washed platelets with peptide ligands. The note with it: peptide 0.8 mM; stimulated and unstimulated platelets. The protocol: FIG. 2 illustrates anti-LIBS1 binding to platelets expressing a cryptic antigenic determinant as described in Example 5. Varied concentrations of ^125 I-anti-LIBS1 were bound at 37 C. for 30 minutes to gel-filtered platelets in the presence of no peptide (inverted triangle), 0.8 mM GRGESP (squares), 0.8 mM GRGDSP (triangles) or GRGDSP and 10 uM ADP (circles). Bound radioactivity was separated from free by spinning the platelets through a layer of sucrose.
Washed platelets were isolated as described in Example 1A, and were resuspended in 2 ml of calcium-free Tyrode's buffer (0.13 M NaCl, 0.0026 M KCl 0.002M MgCl2. 6H2 O, 5 mM Hepes, 0.012 M NaHCO3, pH 7.2) which was first treated by admixture with Chelex 100 (200-400 mesh sodium form, Bio-Rad Laboratories, Richmond, Calif.), maintained to complex any divalent cations present in the Tyrode's buffer and filtered to remove the complexed divalent cations from the buffer. The platelet suspension was then applied to a Sepharose CL2B column (40 ml total bed volume, Pharmacia, Inc., Piscataway, N.J.) equilibrated with the same Tyrode's buffer. […] The label containing immunoreaction products were then separated from non-bound ^125 I-labeled antibody by centrifugation of the platelet aliquot through a sucrose cushion as described in Example 4, and the platelet-associated radioactivity was determined as before.

For test [1], the target named is T2, solubilized αIIb β3 from platelets (Homo sapiens, UniProt P05106+P08514).
T2 construct: αIIb β3 was solubilized from platelets; endogenous in cells; host or cells: human platelets, octylglucoside lysate
T2 sequence (P08514 32-887 limits assumed): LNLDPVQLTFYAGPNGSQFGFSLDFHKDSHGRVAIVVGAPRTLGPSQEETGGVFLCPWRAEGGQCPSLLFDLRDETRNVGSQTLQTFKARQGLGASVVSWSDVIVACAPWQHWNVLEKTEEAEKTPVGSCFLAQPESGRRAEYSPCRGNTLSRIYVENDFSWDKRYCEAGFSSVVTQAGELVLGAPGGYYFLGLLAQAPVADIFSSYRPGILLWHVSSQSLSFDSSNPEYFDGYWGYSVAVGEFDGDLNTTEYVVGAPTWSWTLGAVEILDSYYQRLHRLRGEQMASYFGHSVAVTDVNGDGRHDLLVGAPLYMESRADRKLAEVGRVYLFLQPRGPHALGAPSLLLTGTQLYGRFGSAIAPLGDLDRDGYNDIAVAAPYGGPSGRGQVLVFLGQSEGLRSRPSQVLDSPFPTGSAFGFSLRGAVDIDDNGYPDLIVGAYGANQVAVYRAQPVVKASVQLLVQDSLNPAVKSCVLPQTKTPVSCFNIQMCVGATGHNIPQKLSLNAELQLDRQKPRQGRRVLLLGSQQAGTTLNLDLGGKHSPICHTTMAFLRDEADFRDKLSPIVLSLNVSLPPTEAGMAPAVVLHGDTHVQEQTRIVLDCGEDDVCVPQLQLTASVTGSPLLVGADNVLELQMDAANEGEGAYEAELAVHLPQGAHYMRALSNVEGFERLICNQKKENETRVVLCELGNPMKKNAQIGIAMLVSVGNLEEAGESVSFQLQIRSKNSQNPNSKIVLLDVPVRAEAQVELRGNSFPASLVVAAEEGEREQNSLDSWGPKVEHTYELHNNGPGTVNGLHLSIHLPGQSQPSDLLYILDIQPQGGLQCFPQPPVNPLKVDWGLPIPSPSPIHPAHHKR
T2 sequence (P08514 891-1039 partner limits assumed): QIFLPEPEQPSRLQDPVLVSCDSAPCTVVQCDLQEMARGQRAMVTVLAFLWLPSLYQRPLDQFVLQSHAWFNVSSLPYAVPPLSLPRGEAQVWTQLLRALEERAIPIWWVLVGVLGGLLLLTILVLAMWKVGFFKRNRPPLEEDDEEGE
T2 sequence (P05106 27-788): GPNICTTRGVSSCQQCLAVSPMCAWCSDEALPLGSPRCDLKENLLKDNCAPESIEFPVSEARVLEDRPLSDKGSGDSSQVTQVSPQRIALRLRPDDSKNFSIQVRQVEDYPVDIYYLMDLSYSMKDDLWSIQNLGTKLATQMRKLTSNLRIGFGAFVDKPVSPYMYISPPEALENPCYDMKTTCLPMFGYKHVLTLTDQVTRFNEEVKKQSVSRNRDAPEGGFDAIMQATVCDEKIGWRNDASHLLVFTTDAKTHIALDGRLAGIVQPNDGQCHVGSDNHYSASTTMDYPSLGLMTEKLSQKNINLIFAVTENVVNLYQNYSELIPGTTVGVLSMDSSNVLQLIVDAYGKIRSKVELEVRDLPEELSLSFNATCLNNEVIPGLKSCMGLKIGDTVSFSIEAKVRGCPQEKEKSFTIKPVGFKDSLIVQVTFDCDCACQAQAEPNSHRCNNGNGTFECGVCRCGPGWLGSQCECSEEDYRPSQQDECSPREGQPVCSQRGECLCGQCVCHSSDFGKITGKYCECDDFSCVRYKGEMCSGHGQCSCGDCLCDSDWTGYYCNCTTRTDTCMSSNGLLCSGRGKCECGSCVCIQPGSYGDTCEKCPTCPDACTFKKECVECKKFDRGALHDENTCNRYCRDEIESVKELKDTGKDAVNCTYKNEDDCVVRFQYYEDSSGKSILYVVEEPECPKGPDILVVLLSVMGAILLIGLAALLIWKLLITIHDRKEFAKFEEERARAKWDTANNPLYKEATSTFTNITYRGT
In words: Solution phase assay: 125I-Fg binding to solubilized αIIb β3. Type of test: biochemical. The protocol:
To determine if activating antibodies could activate αIIb β3 extracted away f rom the membrane milieu, the activating capacity to stimulate Fg binding in a solution phase was assayed. In this assay, αIIb β3 was solubilized from platelets, incubated in the presence or absence of activating monoclonal antibodies, and then bound to microtiter plates coated with a non-activating monoclonal anti β3 antibody.
The platelet pellet was resuspended and solubilized in ice cold 10 mM Hepes containing 150 mM NaCl, 50 mM octyl-B-D-glucoypyranoside (Calbiochem, La Jolla, Calif.) 1 mm PMSF, 50 ng/ml PGE, 1 mM CaCl2, 1 mM MgCl2, 50 uM leupeptin and 1 mg/ml N-ethylmaleimide (Sigma, St. Louis, Mo.) and centrifuged at 100,000 g for 30 minutes. […] The microtiter wells were incubated at 4 C. overnight, washed twice with a modified Tyrodes-Hepes buffer (2.5 mM Hepes, 150 mM NaCl, 2.5 mM KCl, 1 mM MgCl2, 12 mM NaHCO3, 5.5 mM D-glucose and 1 mg/ml BSA, pH 7.4) containing 50 MM octyl-B-D-glucopyranoside and 0.1 uM activating monoclonal antibody and then twice in Tyrodes-Hepes buffer only to form αIIb β3 -bound microtiter wells. […] Bound radioactivity was counted after 2 washes with Tyrodes-Hepes buffer.

Test [2] concerns the target T3, αIIb β3 on A5 cells (Homo sapiens, UniProt P05106+P08514).
T3 construct: expressed in transfected cells
Description: Soluble 125I-fibrinogen binding to A5 cells. The class given is cell-based. On the procedure:
FIG. 4 illustrates the equilibrium binding of soluble fibrinogen (Fg) to Ab-62 stimulated (activated) A5 cells when measured as in Example 10. A5 cells at a concentration of 10^6 per ml were admixed with 6 uM of Sepharose-purified AB-62 and maintained at 22 C. for 30 minutes to activate the integrin. Iodinated Fg was then admixed in varying concentrations from 0.01 to 1 nM. After a 60 minute maintenance period, the bound ligand was separated from free ligand by centrifugation through 0.3 ml of 20% sucrose. The amount of radiolabelled ligand associated with the cell pellet was determined by gamma detection. Saturable binding was measured in three different experiments and plotted versus the input Fg concentration to obtain an averaged profile. A Scatchard replot of the binding data was made and is shown in the insert.
An independent measure of integrin activation was made by detecting the ability of a cell containing the integrin to bind soluble fibrinogen (Fg) that had been labelled with ^125 I. Fg was isolated and labelled with ^125 I by standard methods as described by Marguerie et al., J. Biol. Chem., 255:154-161 (1980) to form ^125 I-Fg. Thereafter, the binding of ^125 I-Fg to transfected cells was assayed as described previously for platelets [Marguerie et al., J. Biol. Chem., 255:154-161 (1980)]. Binding was initiated by the addition of cells to radiolabelled Fg and incubation at 37 degrees for 30 minutes. Bound ligand was separated from free ligand by centrifugation through 0.3 ml of 20% sucrose and the amount of radiolabelled ligand associated with the cell pellet determined by gamma detection.
Background binding in this assay detected about 30,000 molecules of Fg bound per integrin bearing cell, whereas maximum Ab-62 stimulated A5 cells bound about 95,000 molecules of Fg per cell.
Equilibrium binding of soluble Fg to Ab-62 stimulated (activated) A5 cells was carried out to better characterize Fg binding. […] A5 cells (10^6 per ml) were incubated with 6 uM Sepharose-purified Ab-62 for 30 minutes at 22 C. to activate the integrin. Thereafter ^125 I-Fg was admixed in varying concentrations from 0.01 to 1 nM. After 60 minutes, bound Fg was measured as described above after centrifugation of the cells through sucrose.
Saturable binding was measured in three different experiments and plotted versus the input Fg concentration to obtain average data which is shown in FIG. 4. A Scatchard replot of the binding data was also made and is shown in the inset to FIG. 4. The binding of the various concentrations of Fg to activated A5 cells at steady state was analyzed by use of the "Ligand" computer program. […] There was day to day variation in the quantity of αIIb β3 expressed as measured by the binding of the 2G12 antibody (150,000 to 440,000 sites/cell) as well as in the number of Fg receptors (138,000 to 360,000 sites/cell). The ratio of Fg receptors to αIIb β3 expressed per cell on a given day was 0.83±0.05, thus virtually all of the recombinant αIIb β3 was functional with respect to Fg binding.

Test [3] concerns the target T3, αIIb β3 on A5 cells. In words: Binding of fibrinogen-coated fluorescent beads to A5 cells. The class given is cell-based. The note with it: 2 mM peptide. On the procedure: Immobilized Fg was prepared by coating […] fluorescent latex beads (Fluoricon Fluorescent Particles, Baxter, McGraw Park, Ill.). These beads were prepared by incubating 1 mg of purified Fg with 650 ul of Fluoricon beads for 1 hour at room temperature. The beads were pelleted, resuspended in 1 ml of 30 mM Tris pH 7.4, 170 mM NaCl and 1% BSA, and stored at 4 degrees until ready for use. The binding of these particles to transfected cells was assessed by incubating 5×10^5 cells with 25 ul of beads in the presence or absence of polypeptide inhibitors for 30 minutes at room temperature. The solution was layered over a 6% BSA cushion, spun 5 minutes in a microfuge and the pelleted cells resuspended in 500 ul of Tyrodes and subjected to FACS analysis as described in Example 7.

For a further test, the system named is αIIb β3 and αv β3. Description: Peptide ligand recognition by recombinant β3 integrins. The class given is binding, human.

SMILES strings stand for the structures. Residues, ends and D or L forms follow the SMILES beside them.

T3 sequence (P08514 32-887 limits assumed): as the sequence (P08514 32-887 limits assumed) above
T3 sequence (P08514 891-1039 partner limits assumed): as the sequence (P08514 891-1039 partner limits assumed) above
T3 sequence (P05106 27-788): as the sequence (P05106 27-788) above
T1 sequence (P08514 32-887 limits assumed): as the sequence (P08514 32-887 limits assumed) above
T1 sequence (P08514 891-1039 partner limits assumed): as the sequence (P08514 891-1039 partner limits assumed) above
T1 sequence (P05106 27-788): as the sequence (P05106 27-788) above

In the case of `N=C(N)NCCC[C@H](NC(=O)CN)C(=O)NCC(=O)N[C@@H](CC(=O)O)C(=O)N[C@@H](CO)C(=O)N1CCC[C@H]1C(=O)O` [GRGDSP, Gly-Arg-Gly-Asp-Ser-Pro], on GPIIb-IIIa on platelets, the “induction of LIBS1 cryptic antigenic determinant on platelets by peptide ligand” value is recorded as “will express a LIBS1 cryptic antigenic determinant”. The “inhibition of Fg binding to stimulated captured receptor” value in test [1] is on record as “inhibition”. For the same compound, the “inhibition of soluble 125I-Fg binding to activated A5 cells” value on αIIb β3 on A5 cells [2] is “inhibited”. Moreover, on αIIb β3 on A5 cells [3], the “adherence of A5 cells to Fg-coated microspheres” value was “inhibited”.
As for `CC(C)C[C@H](N)C(=O)NCC(=O)NCC(=O)N[C@@H](C)C(=O)N[C@@H](CCCCN)C(=O)N[C@@H](CCC(N)=O)C(=O)N[C@@H](C)C(=O)NCC(=O)N[C@@H](CC(=O)O)C(=O)N[C@H](C(=O)O)C(C)C` [Mab L10, LGGAKQAGDV] (H-LGGAKQAGDV-OH), in the test on αIIb β3 and αv β3, the “recognition of peptide by αIIb β3 versus αv β3” value was “recognized better by αIIb β3 than by αv β3”.

These data come from US5306620A, “Antibodies that bind to a ligand-induced binding site on integrin and induce integrin activation” (The Scripps Research Institute, priority 1990, dated 1994).
